Laboratory results from ChEMBL document CHEMBL1138111, “Reduction of CYP450 inhibition in the 4-[(1H-imidazol-4-yl)methyl]piperidine series of histamine H3 receptor antagonists” (Bioorg Med Chem Lett, 2006).

What was measured:
[1] = molecular target: Cytochrome P450 3A4 (Homo sapiens, UniProt P08684); assay: Inhibitory activity against CYP3A4; assay type: ADME
[2] = molecular target: T1, Cytochrome P450 2D6 (Homo sapiens, UniProt P10635); assay: Inhibition of CYP2D6 by human liver microsome assay; assay type: ADME, microsomes
T1 sequence (P10635 whole entry): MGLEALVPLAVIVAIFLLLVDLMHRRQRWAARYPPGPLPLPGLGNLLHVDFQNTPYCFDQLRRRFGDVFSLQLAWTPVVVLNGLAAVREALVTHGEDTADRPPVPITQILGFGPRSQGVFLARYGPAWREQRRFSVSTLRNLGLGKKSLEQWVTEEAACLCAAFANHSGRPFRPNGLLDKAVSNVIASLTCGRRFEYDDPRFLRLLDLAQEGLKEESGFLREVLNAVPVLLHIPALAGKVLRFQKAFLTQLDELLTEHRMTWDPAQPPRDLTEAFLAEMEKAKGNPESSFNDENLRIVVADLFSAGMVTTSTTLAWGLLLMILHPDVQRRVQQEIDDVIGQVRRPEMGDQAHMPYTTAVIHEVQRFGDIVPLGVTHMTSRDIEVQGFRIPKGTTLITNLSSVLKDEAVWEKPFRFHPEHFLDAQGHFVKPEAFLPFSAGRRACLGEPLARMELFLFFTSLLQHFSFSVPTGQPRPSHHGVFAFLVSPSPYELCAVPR

[3] = molecular target: T2, Histamine H3 receptor (Cavia porcellus, UniProt Q9JI35); assay: Antagonistic activity against histamine H3 receptor in guinea pig ileum; assay type: functional, tissue-based; settings: read-out: pA2 (converted)
T2 sequence (Q9JI35 whole entry): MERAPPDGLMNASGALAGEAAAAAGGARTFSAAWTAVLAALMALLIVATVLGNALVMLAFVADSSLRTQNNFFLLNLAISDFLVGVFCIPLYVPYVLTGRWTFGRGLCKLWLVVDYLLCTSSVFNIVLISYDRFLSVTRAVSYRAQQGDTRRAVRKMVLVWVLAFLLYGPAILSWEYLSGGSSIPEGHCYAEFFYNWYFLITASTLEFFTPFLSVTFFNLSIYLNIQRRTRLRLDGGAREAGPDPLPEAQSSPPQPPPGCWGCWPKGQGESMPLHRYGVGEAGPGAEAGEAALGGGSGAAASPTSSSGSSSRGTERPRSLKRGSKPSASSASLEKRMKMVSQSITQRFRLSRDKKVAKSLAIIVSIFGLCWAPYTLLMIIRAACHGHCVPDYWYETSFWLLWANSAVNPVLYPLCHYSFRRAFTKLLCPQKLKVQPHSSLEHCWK

[4] = molecular target: T2, Histamine H3 receptor; assay: Displacement of [3H]N-alpha-methylhistamine from guinea pig histamine H3 receptor
[5] = molecular target: T1, Cytochrome P450 2D6; assay: Inhibition of CYP2D6 by supersome assay; assay type: ADME
[6] = Plasma AUC (0-6 h) in rat at 10 mg/kg, po; assay type: ADME, organism-based; design: time < 6 hr, dose 10 mg/kg, route oral
[7] = Plasma AUC (0-24 h) in monkey at 3 mg/kg, po; assay type: ADME, organism-based, Macaca mulatta; design: time < 24 hr, dose 3 mg/kg, route oral; settings: rhesus monkey

Chain of Cytochrome P450 3A4 (P08684 whole entry): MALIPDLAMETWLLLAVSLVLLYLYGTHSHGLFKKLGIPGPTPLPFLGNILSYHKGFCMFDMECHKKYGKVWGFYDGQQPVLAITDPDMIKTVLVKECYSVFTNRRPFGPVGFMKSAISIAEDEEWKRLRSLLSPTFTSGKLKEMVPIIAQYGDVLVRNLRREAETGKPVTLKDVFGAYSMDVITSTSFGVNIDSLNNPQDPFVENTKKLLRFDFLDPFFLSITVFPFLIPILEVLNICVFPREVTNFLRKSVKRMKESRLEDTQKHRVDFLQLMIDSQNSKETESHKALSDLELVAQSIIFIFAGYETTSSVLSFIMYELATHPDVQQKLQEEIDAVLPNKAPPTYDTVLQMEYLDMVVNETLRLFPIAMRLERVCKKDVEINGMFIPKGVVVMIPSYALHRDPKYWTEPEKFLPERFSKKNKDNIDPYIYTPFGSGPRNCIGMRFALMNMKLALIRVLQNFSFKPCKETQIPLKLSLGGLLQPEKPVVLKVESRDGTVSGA

Row | SMILES | IC50 [1] [nM] | IC50 [2] [nM] | Kb [3] [nM] | Ki [4] [nM] | IC50 [5] [nM] | AUC(0-t) at 6 h [6] [µM·h] | AUC(0-t) at 24 h [7] [µM·h]
1 | c1ccc(OCCCN2CCC(Cc3c[nH]cn3)CC2)cc1 | > 20000 | 30 |  |  |  |  | 
2 | NC(=O)C1CCN(Cc2ccc(OCCCN3CCC(Cc4c[nH]cn4)CC3)cc2)CC1 |  |  | 25.1 | 16 | > 30000 |  | 
3 | FC1(F)CCN(Cc2ccc(OCCCN3CCC(Cc4cnc[nH]4)CC3)cc2)CC1 |  | 6000 |  | 4 |  |  | 
4 | O=C(c1ccc(OCCCN2CCC(Cc3c[nH]cn3)CC2)cc1)N1CCCCC1 |  |  | 20 | 26 | 2000 |  | 
5 | CN(C)CCCOc1ccc(CN2CCC(Cc3cnc[nH]3)CC2)cc1 |  | > 30000 | 79.4 | 17 |  |  | 
6 | O=C(CCOc1ccc(CN2CCCCC2)cc1)N1CCC(Cc2cnc[nH]2)CC1 |  | 1000 |  | 315 |  | 1.83 | 
7 | Nc1ncc(-c2ccc(OCCCN3CCC(Cc4c[nH]cn4)CC3)cc2)cn1 |  | 12000 | 20 | 12 |  |  | 
8 | c1ncc(CC2CCN(CCOc3ccc(CN4CCCCC4)cc3)CC2)[nH]1 |  | 3000 |  | 5 |  |  | 
9 | c1nc(CC2CCN(CCCOc3ccc(CN4CCCCC4)nc3)CC2)c[nH]1 |  | 3000 | 7.94 | 10 |  |  | 
10 | c1nc(CC2CCN(CCCCOc3ccc(CN4CCCCC4)cc3)CC2)c[nH]1 |  | > 20000 | 15.8 | 16 |  |  | 
11 | c1cnc2ccc(OCCCN3CCC(Cc4cnc[nH]4)CC3)cc2c1 |  | 2000 |  | 52 |  |  | 
12 | c1ncc(CC2CCN(CCCOc3ccc(OC4CCCCC4)cc3)CC2)[nH]1 |  | 300 |  | 6 |  |  | 
13 | c1ncc(-c2ccc(OCCCN3CCC(Cc4cnc[nH]4)CC3)cc2)cn1 |  | 4000 |  | 9 |  |  | 
14 | c1cnc(-c2ccc(OCCCN3CCC(Cc4cnc[nH]4)CC3)cc2)nc1 |  | 6000 |  | 45 |  |  | 
15 | O=C1CCCCN1Cc1ccc(OCCCN2CCC(Cc3cnc[nH]3)CC2)cc1 |  |  |  | 34 | 5000 |  | 
16 | O=C(c1ccc(OCCCN2CCC(Cc3cnc[nH]3)CC2)nc1)N1CCCCC1 |  | 2000 | 20 | 24 |  |  | 
17 | c1ncc(CC2CCN(CCCOc3ccc(NC4CCCCC4)cc3)CC2)[nH]1 |  | 900 |  | 15 |  |  | 

Row | SMILES | IC50 [1] [nM] | IC50 [2] [nM] | Kb [3] [nM] | Ki [4] [nM] | IC50 [5] [nM] | AUC(0-t) at 6 h [6] [µM·h] | AUC(0-t) at 24 h [7] [µM·h]
18 | c1ncc(CC2CCN(CCCOc3ccc(CCN4CCCCC4)cc3)CC2)[nH]1 |  |  | 3.16 | 3 | 1000 |  | 
19 | O=C(CCOc1ccc(C(=O)N2CCNCC2)cc1)N1CCC(Cc2c[nH]cn2)CC1 |  | 30000 |  |  |  |  | 
20 | O=C(Nc1nccs1)N1CCC(Cc2cnc[nH]2)CC1 |  | 2000 | 25.1 | 4 |  | 1.03 | 
21 | O=C(Nc1ncccn1)N1CCC(Cc2c[nH]cn2)CC1 |  | 6000 | 25.1 | 8 |  |  | 
22 | CCN(CC)Cc1ccc(OCCCN2CCC(Cc3c[nH]cn3)CC2)cc1 |  | 6000 | 1.58 | 4 |  |  | 
23 | c1nc(CC2CCN(CCCOc3ccc(N4CCCCC4)cc3)CC2)c[nH]1 |  | 1000 |  | 15 |  |  | 
24 | c1cc(OCCCN2CCC(Cc3cnc[nH]3)CC2)cc(OC2CCCCC2)c1 |  | 2000 |  | 3 |  |  | 
25 | c1cc(CN2CCCCC2)cc(OCCCN2CCC(Cc3cnc[nH]3)CC2)c1 |  | 3000 | 3.98 | 1 |  |  | 
26 | O=C(CCc1ccc(CN2CCCCC2)cc1)N1CCC(Cc2c[nH]cn2)CC1 |  | 3000 |  | 45 |  |  | 
27 | CN(C)CCCOc1ccc(CN2CCCCC2)cc1 | > 30000 | > 30000 | 31.6 | 33 |  |  | 
28 | c1ncc(CC2CCN(CCCOc3ccc(CN4CCC(N5CCCCC5)CC4)cc3)CC2)[nH]1 |  | > 30000 |  | 3 |  |  | 
29 | c1cncc(-c2ccc(OCCCN3CCC(Cc4cnc[nH]4)CC3)cc2)c1 |  | 300 |  | 12 |  |  | 
30 | c1nc(CC2CCN(CCCOc3ccc(CN4CCCCC4)cc3)CC2)c[nH]1 |  | 14000 | 2.51 | 3 |  |  | 3.2
31 | O=C(c1ccc(OCCCN2CCC(Cc3cnc[nH]3)CC2)cc1)N1CCNCC1 |  | > 20000 | 15.8 | 23 |  |  | 
32 | O=C(CCN1CCC(Cc2c[nH]cn2)CC1)Nc1ccc(CN2CCCCC2)cc1 |  | 9000 |  | 40 |  |  | 
33 | c1ncc(CC2CCN(CCCOc3ccc(N4CCNCC4)cc3)CC2)[nH]1 |  | > 20000 |  | 12 |  |  | 
34 | CN(C)CCCOc1ccc(CCCN2CCC(Cc3cnc[nH]3)CC2)cc1 |  | > 30000 | 50.1 | 13 |  |  | 
